# Values quoted from earlier work, collected in patent US20180140572A1, “COMPOSITIONS COMPRISING A CANCER STEMNESS INHIBITOR AND AN IMMUNOTHERAPEUTIC AGENT FOR USE IN TREATING CANCER” (Boston Biomedical, Inc., priority 2015, published 2018).
# System: microsatellite stable (MSS) metastatic colorectal cancer (mCRC)
# Settings: patients with MSS mCRC, cited from earlier work
substance,measurement,setting,value
pembrolizumab: immunotherapeutic agent that binds to PD-1,immune-related progression-free survival at 20 weeks,20 weeks,11%
same,disease control rate,,11%
same,effectiveness,,not effective
same,immune-related objective response rate,,0%
same,response rate,,0%
